The source of these data is US12465650B2, “Methods and compositions for targeting cancer cells in metastases” (THE BOARD OF REGENTS OF THE UNIVERSITY OF TEXAS SYSTEM, priority 2021, dated 2025).

Bridge positions count the residues as written; N and C are the ends. Ends that are not written are not given here.

Test [1] deals with Murine 3T3L1 preadipocytes. Description: anti-phage immunofluorescence, uptake by negative control cells. In kind it is cell-based. The procedure:
(§1) Immunofluorescence for tissue and cell analysis: Immunofluorescence on cells and formalin-fixed paraffin-embedded tissue sections was performed as described Zhang et al., 2012). Primary antibodies used: rabbit anti-Fd bacteriophage (Sigma Aldrich, 1:500), rabbit anti-Asp175-cleaved Caspase3 (Cell Signaling Technology, 1:100), mouse anti-E Cadherin and mouse anti-N Cadherin (BD Biosciences, 1:100). Secondary antibodies used: donkey Alexa 488-conjugated IgG (Invitrogen, 1:300) and Cy3-conjugated IgG (Jackson ImmunoResearch, 1:300). Biotinylated peptide internalization was visualized with Cy3-conjugated streptavidin IgG (Thermo Fischer Scientific, 1:50). Nuclei were stained with Hoechst 33258 (Invitrogen, 1:2000). Tissue and cell images were acquired with a Nikon Eclipse TE2000E Widefield Fluorescence Microscope (Nikon Instruments Inc.). Image quantification included 5 random microscopic fields of view at 20× magnification. Images were processed and analyzed with ImageJ software (NIH and University of Wisconsin). Cadherin co-localization was quantified based on the previously described ImageJ software object based-approach (JACoP) methodology based on the Mander's coefficient (Bolte and Cordelieres, 2006).
(§2) Murine 3T3L1 preadipocytes were used as a negative control and uptake was not observed for BLMP6-phage (FIG. 1C).

Test [2] concerns mCherry-positive metastatic tumor cells (4T1.2). Description: in vivo bio-panning of CX7C/CX8C phage-peptide library for lung metastasis-homing peptides. Conditions: p≤0.0001. More on the design: species or system Balb/c mice. On the procedure:
Animal experiments: Rodent studies were authorized by the Institutional Animal Care and Use Committees of UTHealth. Spontaneous cancer progression was modelled by injecting 2×10^4 4 T1.2 (mCherry+ Luciferase+) cells into the mammary fat pad of 10-week-old female Balb/c mice (Jackson Laboratory) with a 31-gauge needle. Primary tumor volume was measured weekly with calipers and calculated using the (length×width^2)/2 formula. At a tumor volume of ˜200 mm^3, mice were randomized into two cohorts and administered either vehicle (1×PBS) or cisplatin (Tocris Biosciences; 2.5 mg/kg) retro-orbitally once a week for three weeks. Metastatic progression was monitored with bioluminescence imaging. For experimental metastasis modeling in C57BL/6 mice (Jackson Laboratory), 1×10^5 B16F10 cells were intravenously injected into the tail vein and mice were used after 2 weeks. In both mice models, pulmonary metastases were observed 3 weeks post implantation. […] Selected phage were amplified through K91 E. coli infection and quantified via TU counting. For each round, clone enrichment was quantified based on recovery frequency among 96 phage peptide-coding inserts sequenced from PCR-amplified phage DNA (Kolonin et al., 2004). […] Radioactive uptake was measured using a Cobra II automated gamma counter (Packard) and expressed as percentage of the injected dose per gram tissue (% ID/g tissue). […]

The test system of test [3] is MDA-MB-231 human TNBC cells. As to the kind of experiment: phage-peptide clone binding to human TNBC cells. It counts as cell-based. Conditions: phage-displayed.
From the text: as §2

Test [4] has as its system 4T1.2 spontaneous metastases. As to the kind of experiment: in vivo homing of individual phage-peptide clones, 4T1.2 model. More on the design: species or system Balb/c mice. Particulars: mouse. On the procedure:
Animal experiments: Rodent studies were authorized by the Institutional Animal Care and Use Committees of UTHealth. Spontaneous cancer progression was modelled by injecting 2×10^4 4 T1.2 (mCherry+ Luciferase+) cells into the mammary fat pad of 10-week-old female Balb/c mice (Jackson Laboratory) with a 31-gauge needle. Primary tumor volume was measured weekly with calipers and calculated using the (length×width^2)/2 formula. At a tumor volume of ˜200 mm^3, mice were randomized into two cohorts and administered either vehicle (1×PBS) or cisplatin (Tocris Biosciences; 2.5 mg/kg) retro-orbitally once a week for three weeks. Metastatic progression was monitored with bioluminescence imaging. For experimental metastasis modeling in C57BL/6 mice (Jackson Laboratory), 1×10^5 B16F10 cells were intravenously injected into the tail vein and mice were used after 2 weeks. In both mice models, pulmonary metastases were observed 3 weeks post implantation. The screen for metastasis-homing peptides was performed using a 50:50 mixture of phage cyclic peptide libraries CX7C and CX8C (C: cysteine; X: any amino acid residue) provided by Erkki Koivunen (Arap et al., 2002). For every bio-panning round, a mouse with metastases (between weeks 3 and 4) was intravenously injected with 10^10 transducing units (TU) of the library. After 3 hours of circulation, the heart was perfused with 10 ml phosphate buffered saline (PBS). […] Selected phage were amplified through K91 E. coli infection and quantified via TU counting. For each round, clone enrichment was quantified based on recovery frequency among 96 phage peptide-coding inserts sequenced from PCR-amplified phage DNA (Kolonin et al., 2004). […] Radioactive uptake was measured using a Cobra II automated gamma counter (Packard) and expressed as percentage of the injected dose per gram tissue (% ID/g tissue).
Immunofluorescence for tissue and cell analysis: Immunofluorescence on cells and formalin-fixed paraffin-embedded tissue sections was performed as described Zhang et al., 2012). […] Tissue and cell images were acquired with a Nikon Eclipse TE2000E Widefield Fluorescence Microscope (Nikon Instruments Inc.). Image quantification included 5 random microscopic fields of view at 20× magnification. Images were processed and analyzed with ImageJ software (NIH and University of Wisconsin). Cadherin co-localization was quantified based on the previously described ImageJ software object based-approach (JACoP) methodology based on the Mander's coefficient (Bolte and Cordelieres, 2006).
(§3) Tissue biodistribution was analyzed by immunofluorescence using phage-specific antibodies. […]

A short description of test [5]: phage localization in cancer-free mice. Particulars: mouse, in vivo. On the procedure:
as §1, §3

Test [6] relates to 4T1, B16F10 and MDA-MB-231 cancer cells that expressed N-cadherin but not E-cadherin. Description: co-localization with cadherins in cultured cell lines. In kind it is cell-based, murine, human. Particulars: reduced E-Cadherin expression. The procedure: Cell lines and primary cell culture: All cell lines were cultured in DMEM media (Hyclone) supplemented with penicillin-streptomycin (Gibco) and 10% fetal bovine serum (Atlas Biologicals). B16F10, MDA-MB-231, and 3T3L1 cell lines were from ATCC. 4T1.2 (4T1) cells expressing mCherry and Luciferase were a gift from S. Mani. Cisplatin-resistant 4T1.2 (4T1.2-CTX) cells were generated after treatment with cisplatin (Tocris Biosciences, 180 ng/mL).
as §1, with “Secondary antibodies used: donkey Alexa 488-conjugated IgG (Invitrogen, 1:300) and Cy3-conjugated IgG (Jackson ImmunoResearch, 1:300). Biotinylated peptide internalization was visualized with Cy3-conjugated streptavidin IgG (Thermo Fischer Scientific, 1:50). Nuclei were stained with Hoechst 33258 (Invitrogen, 1:2000).” left out, “2006). […]” for “2006).”

Test [7] deals with 4T1, B16F10 and MDA-MB-231 tumor cell lines. Description: trypan blue exclusion assay, tumor cell lines. In kind it is cell-based, murine, human. Conditions: 0.1 mM. The procedure:
Peptides: The exemplary Hunter-killer (HK) peptides HK-BLMP5 and HK-BLMP6 were generated as “all-D-amino acid” cysteine-cyclized peptides (Celtek Bioscience). The proteolysis-resistant peptides were synthesized as acetate salts with an amino-hexanoic acid linker (NH—(CH2)5—CO) conjugating the BLMP and the apoptotic moiety KLAKLAKKLAKLAK (KLAKLAK2): SEQ ID NO:13. Following chromatographic purification, peptides were dissolved in PBS into 10 mM aliquots and stored frozen until further use. For the homing/internalization assay, peptides were biotin-labelled using the Sulfo-NHS-LC-Biotin Kit (APExBIO). Cells were plated in 24 well plates (1×10^5 cells/well), treated. Following treatment with either HK-BLMP6 (0.1 mM) or HK-BLMP5 (0.3 mM) in 0.5 ml serum free culture media for 8 hours, cells were stained with 0.4% Trypan Blue solution (MP Biomedicals) (Daquinag et al., 2016). For radioactive studies, 1,4,7,10-[…]-N′,N″,N′″,N″″-tetra-acetic acid (DOTA) t-Bu ester was purchased from Macrocyclics (Dallas, TX) and peptides were synthesized by Bachem Americas (Torrance, CA). DOTA-peptide conjugation was performed on solid-phase using previously described protocols (Azhdarinia et al., 2011). Radiolabeling with ^67GaCl3 and HPLC determination of purity were performed according to published procedures (Hernandez Vargas et al., 2019). […]

In the case of “CEGPMYAKC (disulfide 1-9 (inferred)) [BLMP3]”, the “non-specific uptake by 3T3L1 cells compared to phage-displayed BLMP6” value in test [1] was “higher non-specific uptake”.
“CGVLPYSLC (disulfide 1-9 (inferred)) [BLMP1]”: the “non-specific uptake by 3T3L1 cells compared to phage-displayed BLMP6” value in test [1] is given as “higher non-specific uptake”.
Turning to “CHLSFSTAC (disulfide 1-9 (inferred)) [BLMP4]”, the “non-specific uptake by 3T3L1 cells compared to phage-displayed BLMP6” value in test [1] is on record as “higher non-specific uptake”.
Turning to “CLRHSSKIC (disulfide 1-9 (inferred)) [BLMP5]”, the “enrichment in the last round of bio-panning” value in test [2] is given as “most significant enrichment”. Moreover, in test [1], the “non-specific uptake by 3T3L1 cells compared to phage-displayed BLMP6” value is on record as “higher non-specific uptake”. Further, the “binding to MDA-MB-231 cells” value in test [3] is on record as “exhibited binding”. Further, in test [4], the “distribution within primary 4T1.2 tumor” value is given as “dispersed throughout the tumor” and the localization within macro-metastases result was “localized predominantly along the invasive edges”. Also, the “localization to lungs in cancer-free mice” value in test [5] is “lack of BLMP-phage localization to lungs”.
Regarding “CRAGVGRGC (disulfide 1-9 (inferred)) [BLMP6]”, the “enrichment in the last round of bio-panning” value in test [2] is “most significant enrichment”. The “binding to MDA-MB-231 cells” value in test [3] was “exhibited binding”. For the same sequence, in test [4], the “distribution within primary 4T1.2 tumor” value is on record as “observed selectively in a sub-population of cells associated with the vasculature” and the localization within macro-metastases entry is on record as “abundant throughout”. The “localization to lungs in cancer-free mice” value in test [5] is listed as “lack of BLMP-phage localization to lungs”. Moreover, in test [6], the “binding to cisplatin-resistant 4T1.2 cells” value is “maintaining BLMP6 binding”.
Take “CSGVGIASC (disulfide 1-9 (inferred)) [BLMP2]”: the “non-specific uptake by 3T3L1 cells compared to phage-displayed BLMP6” value in test [1] is listed as “higher non-specific uptake”.
On to “KLAKLAKKLAKLAK [KLAKLAK2, untargeted apoptosis-inducing moiety]”, for which, in test [7], the “cell death (trypan blue)” value is reported as “No cancer cell death”.
